Measured values reported in US20240208992A1, “MACROCYCLES AS CFTR MODULATORS” (Idorsia Pharmaceuticals Ltd, priority 2021, published 2024).

Target: human F508del-CFTR (Homo sapiens, UniProt P13569, DEL508-508)
Experiment: F508del-CFTR cell surface expression (corrector activity), DiscoveRx ß-galactosidase complementation chemiluminescence assay in recombinant U2OS cell line;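 also: U2OS cells co-expressing ProLink-tagged F508del-CFTR and a membrane-anchored enzyme acceptor, where more surface CFTR restores β-galactosidase activity measured by chemiluminescence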
Conditions: for EC50: EC50, F508del-CFTR cell surface expression; for Emax: U2OS
[1] = U2OS cell line, 16h compound incubation, geomean values
[2] = in relation to the Emax of the corrector lumacaftor (=100%), U2OS cell line, 16h compound incubation, arithmetic mean values
[3] = U2OS cells, 16h compound incubation, geomean values
[4] = in relation to Emax of corrector lumacaftor (=100%), arithmetic mean values

Chain of human F508del-CFTR (P13569 with tags, fused parts or gaps DEL508-508): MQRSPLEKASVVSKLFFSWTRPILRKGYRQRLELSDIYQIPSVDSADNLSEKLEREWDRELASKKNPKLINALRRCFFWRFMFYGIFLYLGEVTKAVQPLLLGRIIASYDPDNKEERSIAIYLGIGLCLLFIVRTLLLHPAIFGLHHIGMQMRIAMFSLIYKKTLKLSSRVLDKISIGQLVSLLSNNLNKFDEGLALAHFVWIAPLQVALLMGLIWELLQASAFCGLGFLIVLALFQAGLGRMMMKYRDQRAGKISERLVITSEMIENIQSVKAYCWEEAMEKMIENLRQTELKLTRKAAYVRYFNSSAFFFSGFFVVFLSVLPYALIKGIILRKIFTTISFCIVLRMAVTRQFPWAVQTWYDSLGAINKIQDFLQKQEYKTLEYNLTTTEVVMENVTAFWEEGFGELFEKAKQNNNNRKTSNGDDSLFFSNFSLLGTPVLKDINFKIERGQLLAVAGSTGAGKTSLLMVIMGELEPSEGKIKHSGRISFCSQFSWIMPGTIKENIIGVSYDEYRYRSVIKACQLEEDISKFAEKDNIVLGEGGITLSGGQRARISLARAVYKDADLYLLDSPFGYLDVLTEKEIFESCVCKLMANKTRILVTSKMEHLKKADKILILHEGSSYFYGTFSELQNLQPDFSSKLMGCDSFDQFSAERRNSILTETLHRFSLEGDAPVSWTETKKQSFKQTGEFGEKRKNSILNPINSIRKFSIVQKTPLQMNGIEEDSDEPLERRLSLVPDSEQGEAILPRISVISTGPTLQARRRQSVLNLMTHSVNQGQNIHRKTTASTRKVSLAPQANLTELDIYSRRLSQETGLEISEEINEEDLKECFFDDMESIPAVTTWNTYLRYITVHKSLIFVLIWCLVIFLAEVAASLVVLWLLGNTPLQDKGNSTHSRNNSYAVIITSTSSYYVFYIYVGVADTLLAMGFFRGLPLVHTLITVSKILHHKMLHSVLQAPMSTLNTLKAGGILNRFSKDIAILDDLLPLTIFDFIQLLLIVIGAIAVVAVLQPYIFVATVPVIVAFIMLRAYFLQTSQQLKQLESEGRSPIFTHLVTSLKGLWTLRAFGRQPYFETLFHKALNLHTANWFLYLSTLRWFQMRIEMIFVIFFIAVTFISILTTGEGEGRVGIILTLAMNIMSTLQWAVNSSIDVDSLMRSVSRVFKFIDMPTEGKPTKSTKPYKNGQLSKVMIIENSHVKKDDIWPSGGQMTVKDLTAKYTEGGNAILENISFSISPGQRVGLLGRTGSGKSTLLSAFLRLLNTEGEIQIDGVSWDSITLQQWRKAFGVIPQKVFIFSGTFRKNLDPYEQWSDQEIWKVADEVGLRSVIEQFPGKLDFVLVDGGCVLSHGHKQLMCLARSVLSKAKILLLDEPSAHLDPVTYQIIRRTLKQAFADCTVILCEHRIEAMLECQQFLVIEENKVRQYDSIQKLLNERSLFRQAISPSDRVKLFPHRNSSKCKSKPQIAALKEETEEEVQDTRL
Description: The method measures the effect of over-night compound incubation on F508del-CFTR cell surface expression in a recombinant U2OS cell line (DiscoveRx, #93-0987C3). This cell line is engineered to co-express (i) human F508del-CFTR tagged with a Prolink (PK=short ß-galactosidase fragment) and (ii) the remainder of the ß-galactosidase enzyme (Enzyme Acceptor; EA) localized to the plasma membrane. Incubation with compounds that increase PK-tagged F508del-CFTR at the plasma membrane will lead to complementation of the EA fragment to form a functional ß-galactosidase enzyme which is quantified by a chemiluminescence reaction.
The cells are incubated for 5h in the incubator before the addition of 5 μl/well of compound dilution series (5× working stocks in full medium). […] The cells are co-incubated with the compounds for 16h in the incubator at 37° C., 5% CO2. The next day, the cell plates are incubated for 2h at RT in the dark. […] Concentration-response curves are generated using compound-intrinsic maximal efficacy as upper plateau, and from these CRCs compound-intrinsic EC50 values are determined.
The calculated EC50 values may fluctuate depending on the daily assay performance. […] EC50 values from several measurements are given as geomean values. The calculated Emax values may fluctuate depending on the daily assay performance. […] Emax values from several measurements are given as arithmetic mean values.

Row | SMILES | EC50 [1] [µM] | Emax [2] [%] | also measured
1 | CC(C)C[C@H]1C(=O)N(CCC2CCCCC2)CC(=O)N[C@H](Cc2ccccc2)COc2ccc(Cl)cc2C(=O)N[C@H](C(=O)NCCc2ccc3c(c2)OCO3)CC(=O)N1C [Example 253, (3R,9S,13S)-N-(2-(benzo[d][1,3]dioxol-5-yl)ethyl)-3-benzyl-17-chloro-7-(2-cyclohexylethyl)-9-isobutyl-10-methyl-5,8,11,15-tetraoxo-2,3,4,5,6,7,8,9,10,11,12,13,14,15-tetradecahydrobenzo[p][1]oxa[4,7,10,14]tetraazacycloheptadecine-13-carboxamide] | 0.088 | 136 | –
2 | CC(C)C[C@H]1C(=O)N(CC[C@H]2CCCCO2)CC(=O)N[C@H](Cc2ccccc2)COc2ccc3ccccc3c2C(=O)N[C@H](C(=O)NCCc2ccc3c(c2)OCO3)CC(=O)N1C [Example 363] | 0.252 | 230 | –
3 | COc1noc(CCNC(=O)[C@@H]2CC(=O)N(C)[C@@H](CC(C)C)C(=O)N(C)[C@H](CC(F)(F)F)C(=O)N[C@H](Cc3ccccc3)COc3ccc4ncc(F)cc4c3C(=O)N2)n1 [Example 941, (3S,7S,10R,13R)-13-benzyl-20-fluoro-7-isobutyl-N-(2-(3-methoxy-1,2,4-oxadiazol-5-yl)ethyl)-6,9-dimethyl-1,5,8,11-tetraoxo-10-(2,2,2-trifluoroethyl)-1,2,3,4,5,6,7,8,9,10,11,12,13,14-tetradecahydro-[1]oxa[4,7,10,14]tetraazacycloheptadecino[16,17-f]quinoline-3-carboxamide] | – | – | EC50 (U2OS cells, 16h compound incubation, geomean of several measurements): 0.135 µM; Emax (in relation to the Emax of the corrector lumacaftor (=100%), U2OS cells, 16h compound incubation, arithmetic mean): 459%
4 | CC[C@@H]1C(=O)N[C@H](Cc2ccccc2)COc2cc(C)nc(OC)c2C(=O)N[C@H](C(=O)NCCc2cccc(OC)c2)CC(=O)N(C)[C@@H](CC(C)C)C(=O)N1C [Example 774, (3R,6R,9S,13S)-3-benzyl-6-ethyl-9-isobutyl-16-methoxy-N-(3-methoxyphenethyl)-7,10,18-trimethyl-5,8,11,15-tetraoxo-2,3,4,5,6,7,8,9,10,11,12,13,14,15-tetradecahydropyrido[3,4-p][1]oxa[4,7,10,14]tetraazacycloheptadecine-13-carboxamide] | – | – | EC50 [3]: 0.751 µM; Emax [4]: 345%
5 | CC(C)C[C@H]1C(=O)N(C)CC(=O)N[C@H](Cc2ccccc2)COc2cnc3ccccc3c2C(=O)N[C@H](C(=O)NCCc2ccc3c(c2)OCO3)CC(=O)N1C [Example 318, (3S,7S,13R)-N-(2-(benzo[d][1,3]dioxol-5-yl)ethyl)-13-benzyl-7-isobutyl-6,9-dimethyl-1,5,8,11-tetraoxo-1,2,3,4,5,6,7,8,9,10,11,12,13,14-tetradecahydro-[1]oxa[4,7,10,14]tetraazacycloheptadecino[17,16-c]quinoline-3-carboxamide] | 0.679 | 295 | –
6 | CC(C)C[C@H]1C(=O)N(C)C2(CC2)C(=O)N[C@H](Cc2ccccc2)COc2cnc3ccccc3c2C(=O)N[C@H](C(=O)NCCc2cc(C3CC3)no2)CC(=O)N1C [Example 476, (3′S,7′S,13′R)-13′-benzyl-N-(2-(3-cyclopropylisoxazol-5-yl)ethyl)-7′-isobutyl-6′,9′-dimethyl-1′,5′,8′,11′-tetraoxo-2′,3′,4′,5′,6′,7′,8′,9′,11′,12′,13′,14′-dodecahydro-1′H-spiro[cyclopropane-1,10′-[1]oxa[4,7,10,14]tetraazacycloheptadecino[17,16-c]quinoline]-3′-carboxamide] | – | – | EC50 [3]: 0.333 µM; Emax [4]: 344%
7 | Cc1c(CCNC(=O)[C@@H]2CC(=O)N(C)[C@@H](CC(C)C)C(=O)N3CCOC[C@@H]3C(=O)N[C@H](Cc3ccccc3)COc3ccc4ccccc4c3C(=O)N2)c(Cl)cc2c1OCCO2 [Example 36, (4aR,7R,18S,22S)-7-benzyl-N-(2-(7-chloro-5-methyl-2,3-dihydrobenzo[b][1,4]dioxin-6-yl)ethyl)-22-isobutyl-21-methyl-5,16,20,23-tetraoxo-1,2,4,4a,5,6,7,8,16,17,18,19,20,21,22,23-hexadecahydronaphtho[1,2-p][1,4]oxazino[3,4-f][1]oxa[4,7,10,14]tetraazacycloheptadecine-18-carboxamide] | 0.306 | 120 | –
